Reference: PubChem BioAssay AID2060623 (Molecular Pharmacology Branch, DTP, NCI, 2025)

System: 227483-062-R1-J1-PDC complex spheroids with HUVEC/MSC, viability
Assay: Anticancer human tumor 227483-062-R1-J1-PDC patient-derived pancreatic carcinoma cell line growth inhibition [CLK]
Conditions: for IC50: curve of first compound; for viability, T/C: stronger effect = lower value
Description: A high-throughput screen of multi-cell type tumor spheroids was designed to identify active combinations of […] and targeted small molecules. Complex spheroids include a stromal component modeled by human endothelial cells (HUVEC) and fibroblasts modeled by human mesenchymal stem cells (MSCs). The concentration ranges selected for each drug and investigational agent were based upon clinically achievable concentrations if the clinical Cmax of the agent was known.
Compounds. The drugs and investigational agents: cirtuvivint (SM08502; NSC835563), CC-671 (NSC850746), vemurafenib (NSC761431), tapotoclax (NSC804041), sotorasib (NSC818433), adagrasib (NSC831453), MRTX-1133 (NSC836407), BAY2416964 (NSC825713), copanlisib (NSC816437), inavolisib (NSC800729), abemaciclib (NSC768073), osimertinib (NSC779217), entinostat (NSC756642), eltanexor (KPT-8602, NSC794443), venetoclax (NSC766270), ceralasertib (NSC777638), bortezomib (NSC756655), olaparib (NSC753686), talazoparib (NSC767125), alisertib (NSC759677), peposertib (NSC802822), gemcitabine (NSC613327), 5-fluorouracil (NSC19893), SN-38 (NSC673596), oxaliplatin (NSC266046), paclitaxel (NSC125973), and doxorubicin (NSC123127), were obtained from the National Cancer Institute (NCI) Developmental Therapeutics Program Chemical Repository. The FDA-approved anticancer drug set is available from the Developmental Therapeutics Program at https://dtp.cancer.gov/organization/dscb/obtaining/available plates.htm. […] The stock solutions were prepared in dimethyl sulfoxide (DMSO, Sigma-Aldrich, St. Louis, MO, cat. D2650), except for the platinum complexes which were prepared in saline (Quality Biological, Gaithersburg, MD, cat. 114-055-101), at 800-fold the tested concentration and stored at -70 degrees C prior to their use. All drugs and investigational agents were tested over a range starting from a high concentration at or near the clinical Cmax and decreasing in half-log increments. If the clinical Cmax for an agent had not been determined, the highest concentration tested was 10 microM.
Cell Culture. All cells were maintained in an incubator at 37 degrees C and 5% CO2 with 95% humidity. The PDC lines were cultured according to standard operating procedures established by the NCI PDMR. Briefly, all PDCs were thawed and cultured in Matrigel-coated flasks prepared with a working solution of 1X Ham's F-12 nutrient mix, without supplementation (Invitrogen, Waltham, MA, cat. 11765054), 100 U/mL penicillin-streptomycin (Invitrogen, cat. 15140122), and 2.5% Matrigel (Corning Inc., Corning, NY, cat. 354248) for the first three passages. The 947758-054-R-J2-PDC line was cultured in 6B/Colon 1A media, which includes advanced DMEM/F-12 (Thermo Fisher Scientific, cat. 12634028), 10 mM HEPES (Thermo Fisher Scientific, cat. 15630080), 1X GlutaMAX supplement (Thermo Fisher Scientific, cat. 35050061), 0.1 mg/mL primocin (InvivoGen, cat. ant-pm-2), 10% defined fetal bovine serum, heat inactivated (HyClone Laboratories Inc., cat. SH30070.03HI), 1.25 mM N-Acetyl-L-cysteine (Sigma-Aldrich, cat. A9165), 10 mM nicotinamide (Sigma-Aldrich, cat. N0636), 1X B-27 supplement (Thermo Fisher Scientific, cat. 17504044), 1X N-2 supplement (Thermo Fisher Scientific, cat. 17502048), and 10 microM Y-27632 dihydrochloride (Tocris Bioscience, cat. 1254). The 876862-298-R-J1-PDC was cultured in 6E media, which includes all 6B/Colon 1A media components plus 50% L-WRN conditioned media (ATCC, cat. CRL-3276), 50 ng/mL recombinant human EGF recombinant protein (hEGF; Thermo Fisher Scientific, cat. PHG0311), 10 ng/mL recombinant human fibroblast growth factor 10 (hGFG-10; PeproTech, cat. 100-26), 1 ng/mL recombinant human fibroblast growth factor 2 (hFGF-2; PeproTech, cat. 100-18B), and 1 µM prostaglandin E2 (PGE2; Tocris, cat. 2296). The 227483-062-R1-J1-PDC line was cultured in Panc media, containing all 6E components except hFGF-2, with the addition of 500 nM SB-431542 (Selleckchem, cat. S1067) and 10 nM gastrin (Tocris, cat. 3006). […]

[1] = second compound 0.0316 µM, first compound 0.0316 µM
[2] = second compound 0.0316 µM, first compound 0.1 µM
[3] = second compound 0.0316 µM, first compound 0.316 µM
[4] = second compound 0.0316 µM, first compound 1 µM
[5] = second compound 0.0316 µM, first compound 3.16 µM
[6] = second compound 0.0316 µM, first compound 10 µM
[7] = second compound 0.1 µM, first compound 0.0316 µM
[8] = second compound 0.1 µM, first compound 0.1 µM
[9] = second compound 0.1 µM, first compound 0.316 µM
[10] = second compound 0.1 µM, first compound 1 µM
[11] = second compound 0.1 µM, first compound 3.16 µM
[12] = second compound 0.1 µM, first compound 10 µM
[13] = second compound 0.316 µM, first compound 0.0316 µM
[14] = second compound 0.316 µM, first compound 0.1 µM
[15] = second compound 0.316 µM, first compound 0.316 µM
[16] = second compound 0.316 µM, first compound 1 µM
[17] = second compound 0.316 µM, first compound 3.16 µM
[18] = second compound 0.316 µM, first compound 10 µM
[19] = second compound 1 µM, first compound 0.0316 µM
[20] = second compound 1 µM, first compound 0.1 µM
[21] = second compound 1 µM, first compound 0.316 µM
[22] = second compound 1 µM, first compound 1 µM
[23] = second compound 1 µM, first compound 3.16 µM
[24] = second compound 1 µM, first compound 10 µM
[25] = second compound 3.16 µM, first compound 0.0316 µM
[26] = second compound 3.16 µM, first compound 0.1 µM
[27] = second compound 3.16 µM, first compound 0.316 µM
[28] = second compound 3.16 µM, first compound 1 µM
[29] = second compound 3.16 µM, first compound 3.16 µM
[30] = second compound 3.16 µM, first compound 10 µM
[31] = second compound 10 µM, first compound 0.0316 µM
[32] = second compound 10 µM, first compound 0.1 µM
[33] = second compound 10 µM, first compound 0.316 µM
[34] = second compound 10 µM, first compound 1 µM
[35] = second compound 10 µM, first compound 3.16 µM
[36] = second compound 10 µM, first compound 10 µM
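Further: spheroids exposed to compounds for seven days before readout.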
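Wherever viability, T/C is given: percent of DMSO vehicle control luminescence as 100% viability.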

For C#Cc1c(F)ccc2cc(O)cc(-c3ncc4c(N5CC6CCC(C5)N6)nc(OCC56CCCN5CC(F)C6)nc4c3F)c12 (stereo unspecified) + CN1CCN(c2cc(C(=O)Nc3cc4cc(-c5cnn(C)c5)ccc4cn3)ccn2)CC1, the IC50 (second compound 0.0316 µM) was greater than 10000 nM, the IC50 (second compound 0.1 µM) was greater than 10000 nM and the IC50 (second compound 0.316 µM) was less than 31.6 nM. For the same compound, the IC50 (second compound 1 µM) was less than 31.6 nM, the IC50 (second compound 3.16 µM) was less than 31.6 nM and the IC50 (second compound 10 µM) was less than 31.6 nM. The viability, T/C [1] was 95.4%, the viability, T/C [2] was 97% and the viability, T/C [3] was 128%. The viability, T/C [4] was 114%, the viability, T/C [5] was 108% and the viability, T/C [6] was 69.7%. For the same compound, the viability, T/C [7] was 66.1%, the viability, T/C [8] was 70.6% and the viability, T/C [9] was 67.7%. It also gave a viability, T/C [10] of 81.6%, a viability, T/C [11] of 68.8% and a viability, T/C [12] of 52.3%. The viability, T/C [13] was 5.84%, the viability, T/C [14] was 7.37% and the viability, T/C [15] was 7.6%. For the same compound, the viability, T/C [16] was 7.53%, the viability, T/C [17] was 10% and the viability, T/C [18] was 6.58%. The viability, T/C [19] was 3.51%, the viability, T/C [20] was 2.53% and the viability, T/C [21] was 1.89%. For the same compound, the viability, T/C [22] was 3.48%, the viability, T/C [23] was 1.46% and the viability, T/C [24] was 1.87%. The viability, T/C [25] was 4.16%, the viability, T/C [26] was 4.44% and the viability, T/C [27] was 3.89%. It also gave a viability, T/C [28] of 3.43%, a viability, T/C [29] of 3.41% and a viability, T/C [30] of 2.74%. The viability, T/C [31] was 4.25%, the viability, T/C [32] was 2.63% and the viability, T/C [33] was 2.09%. The viability, T/C [34] was 4%, the viability, T/C [35] was 1.52% and the viability, T/C [36] was 1.15%.
C=C(F)C(=O)N1CCN(c2nc(OCC3CCCN3C)nc3c2CCN(c2cccc4cccc(Cl)c24)C3)CC1CC#N (stereo unspecified) + CN1CCN(c2cc(C(=O)Nc3cc4cc(-c5cnn(C)c5)ccc4cn3)ccn2)CC1 gave an IC50 (second compound 0.0316 µM) of 6190 nM, an IC50 (second compound 0.1 µM) of 4890 nM and an IC50 (second compound 0.316 µM) of less than 31.6 nM. It also gave an IC50 (second compound 1 µM) of less than 31.6 nM, an IC50 (second compound 3.16 µM) of less than 31.6 nM and an IC50 (second compound 10 µM) of less than 31.6 nM. It also gave a viability, T/C [1] of 87.7%, a viability, T/C [2] of 104% and a viability, T/C [3] of 102%. The viability, T/C [4] was 86.8%, the viability, T/C [5] was 89.8% and the viability, T/C [6] was 21.3%. The viability, T/C [7] was 67.6%, the viability, T/C [8] was 73.8% and the viability, T/C [9] was 68%. For the same compound, the viability, T/C [10] was 78.8%, the viability, T/C [11] was 78.2% and the viability, T/C [12] was 11.8%. For the same compound, the viability, T/C [13] was 5.59%, the viability, T/C [14] was 5.63% and the viability, T/C [15] was 5.48%. It also gave a viability, T/C [16] of 4.47%, a viability, T/C [17] of 5.37% and a viability, T/C [18] of 0.42%. The viability, T/C [19] was 3.8%, the viability, T/C [20] was 3.22% and the viability, T/C [21] was 2.15%. For the same compound, the viability, T/C [22] was 3.98%, the viability, T/C [23] was 0.88% and the viability, T/C [24] was 0.97%. The viability, T/C [25] was 5.83%, the viability, T/C [26] was 2.98% and the viability, T/C [27] was 3.49%. It also gave a viability, T/C [28] of 4.77%, a viability, T/C [29] of 1.3% and a viability, T/C [30] of 1.8%. It also gave a viability, T/C [31] of 3.7%, a viability, T/C [32] of 1.84% and a viability, T/C [33] of 3.88%. For the same compound, the viability, T/C [34] was 2.09%, the viability, T/C [35] was 1.69% and the viability, T/C [36] was 0.39%.
CC(CO)NC(=O)c1cc(-c2ccc(Cl)cc2)nn(-c2cnn(C)c2)c1=O (stereo unspecified) + CN1CCN(c2cc(C(=O)Nc3cc4cc(-c5cnn(C)c5)ccc4cn3)ccn2)CC1 gave an IC50 (second compound 0.0316 µM) greater than 10000 nM, an IC50 (second compound 0.1 µM) greater than 10000 nM and an IC50 (second compound 0.316 µM) of less than 31.6 nM. The IC50 (second compound 1 µM) was less than 31.6 nM, the IC50 (second compound 3.16 µM) was less than 31.6 nM and the IC50 (second compound 10 µM) was less than 31.6 nM. The viability, T/C [1] was 88.9%, the viability, T/C [2] was 89.1% and the viability, T/C [3] was 98.5%. It also gave a viability, T/C [4] of 94%, a viability, T/C [5] of 94.7% and a viability, T/C [6] of 82.4%. The viability, T/C [7] was 65.2%, the viability, T/C [8] was 61.3% and the viability, T/C [9] was 66.4%. The viability, T/C [10] was 69%, the viability, T/C [11] was 63.2% and the viability, T/C [12] was 65.4%. It also gave a viability, T/C [13] of 6.17%, a viability, T/C [14] of 7.14% and a viability, T/C [15] of 9.66%. The viability, T/C [16] was 6.91%, the viability, T/C [17] was 8.13% and the viability, T/C [18] was 5.79%. The viability, T/C [19] was 2.97%, the viability, T/C [20] was 2.61% and the viability, T/C [21] was 3.05%. The viability, T/C [22] was 3.03%, the viability, T/C [23] was 1.78% and the viability, T/C [24] was 1.92%. The viability, T/C [25] was 4.36%, the viability, T/C [26] was 4.28% and the viability, T/C [27] was 3.59%. For the same compound, the viability, T/C [28] was 2.83%, the viability, T/C [29] was 3.7% and the viability, T/C [30] was 3.41%. It also gave a viability, T/C [31] of 4.97%, a viability, T/C [32] of 2.72% and a viability, T/C [33] of 2.16%. For the same compound, the viability, T/C [34] was 2.15%, the viability, T/C [35] was 2.52% and the viability, T/C [36] was 3%.
